Data: ChEMBL document CHEMBL4261507, “Pyrazolo[3,4-d]pyrimidines as sigma-1 receptor ligands for the treatment of pain. Part 1: 4-acylamino derivatives” (Medchemcomm, 2017)

How the values were obtained:
[1] = Apparent permeability in human Caco2 cells; format: ADME, cell-based; settings: Caco-2
[2] = Lipophilicity, log P of the compound; format: physicochemical; settings: octanol/water

Papp [1]: 39 ×10⁻⁶ cm/s
logP [2]: 2.6
SMILES: CC(C)(C)C(=O)Nc1ncnc2c1cnn2CCN1CCCCC1
